# Data: patent US20220362326A1, “INHIBITING ZD17-JNK I[…] A THERAPY FOR ACUTE MYOCARDIAL INFARCTION” (The University of British Columbia, priority 2019, published 2022)
# Ends that are not written are not given here.
# Tests used:
# [1] = system: primary cardiomyocyte culture; assay: Cell death assays in H2O2-treated primary cardiomyocyte culture; assay type: cell-based, Sprague Dawley rats; details: 10 uM peptide, 30 min before 300 uM H2O2 (4 hrs) and during 12 hr recovery
# Description: Hearts were removed from P1-2 Sprague Dawley rats and cut into 1 mm^3 cubes. The heart tissue was then digested in the cell digestion buffer at 37° C. for 4 min and centrifuged at 200 rpm for 1 min to remove the supernatant. The pellet was digested in the cell digestion buffer again at 37° C. until it was fully digested and then centrifuged at 200 rpm for 1 min to remove the debris. The sample was mixed with FBS to neutralize trypsin and collagenase and then centrifuged at 1000 rpm for 5 min to remove the supernatant. Cardiomyocytes were isolated from the sample by differential adhesion and then cultured in plates in the cell culture medium. Primary cardiomyocyte cultures were maintained in the 37° C. incubator with 95% […] and 5% CO2 for 5 days before being used for experiments.
# Cell death of primary cardiomyocyte culture was measured using a variety of assays. MTT and the activity of creatine kinase, lactate dehydrogenase, malondialdehyde and superoxide dismutase were measured using commercial kits and according to manufacturer's instructions. Cell apoptosis assays were conducted by treating primary cardiomyocyte culture with the Annexin V-FITC cytotoxicity kit, followed by flow cytometry (BD, FACSlalibur) to determine the apoptosis percentage.
# Primary cardiomyocyte cultures were treated with 300 uM H2O2 for 4 hours to induce oxidative stress. Then, cardiomyocytes were placed back in the normal culture medium for 12 hours before cell death analysis. 30 min before H2O2 treatment and during the 12 hour-recovery period, some cardiomyocytes were treated with 10 uM NIMoEsh-Tat peptide.
# [2] = system: rat model of AMI; assay: Rat model of AMI: TTC staining and measurement of heart infarct; assay type: in vivo, Sprague Dawley rats; details: rats, 20 mg/kg i.v. immediately after ligation, hearts removed four hours later; vs saline, P<0.01
# [3] = system: pig model of transient AMI; assay: Pig model of transient AMI: transthoracic echocardiography; assay type: in vivo, Chinese Bama miniature pigs; details: pigs, 2 mg/kg i.v. 40 min after occlusion and 24 hours after reperfusion, day 30, vs saline
# [4] = system: pig model of transient AMI; assay: Pig model of transient AMI: TTC staining and heart infarct; assay type: in vivo, Chinese Bama miniature pigs; details: pigs, 2 mg/kg i.v. twice, day 30, TTC staining; vs saline, P<0.01
# [5] = system: pig model of transient AMI; assay: Pig model of transient AMI: histological analysis of hearts (H & E); assay type: in vivo, Chinese Bama miniature pigs
# [6] = pigs, 2 mg/kg i.v. twice; vs saline group
# Description: The heart rate (a), electrocardiogram (QRS duration (b), QRS voltage (c), T voltage (d) and ST voltage (e)), and body weight (f) were monitored before artery occlusion, after artery occlusion and after reperfusion. […] The NIMoEsh-Tat group: N=5; the saline group: N=5. Data are presented as mean±S.E.M.
# The cardioprotective efficacy of the NIMoEsh-Tat peptide was also investigated in Chinese Bama miniature pigs. Transient AMI was induced in these pigs by occluding the left circumflex coronary artery for 1 hour, followed by blood reperfusion. Pigs received one i.v. injection of the NIMoEsh-Tat peptide (2 mg/kg) or saline 40 min after occlusion and another i.v. injection 24 hours after reperfusion. The pigs were evaluated for heart function on day 30 before they were sacrificed for histological analysis.
# [7] = system: rat model of AMI; assay: Rat model of AMI: heart function (hemodynamic) measurement; details: rats, 20 mg/kg i.v. at 0, 24 and 48 hours after surgery, measured 4 weeks after last injection
# Description: Rats were subjected to AMI by ligation of the left anterior descending coronary artery as described previously (Yu, J. G. et al. Acta Pharmacol Sin 34, 1508-1514, doi:10.1038/aps.2013.147 (2013)). Briefly, rats were anesthetized with 100 mg/kg ketamine hydrochloride and 10 mg/kg diazepam by intraperitoneal injection and then received artificial ventilation using a respirator (Shanghai Alcott Biotech, China, ALC-V8) with a tidal volume of 20 mL and a respiratory rate of 60/min. The heart was exteriorized through the 4th intercostal space and the left anterior descending coronary artery was ligated using a 6-0 suture. Rats were placed back in their home cages after the incision was closed. Sham rats underwent the same protocol except without ligation of the coronary artery.
# Hemodynamic assessments in rats were conducted as described by Yu et al. (Acta Pharmacol Sin 34, 1508-1514, doi:10.1038/aps.2013.147 (2013)). Briefly, rats were anesthetized with 1.25 g/kg 25% urethane and a polyethylene catheter connected to a pressure transducer (Powerlab 30, ADlnstruments) was inserted into the right carotid artery and then advanced into the left ventricle cavity. The mean heart rate, systolic blood pressure, left ventricular systolic pressure (LVSP), left ventricular end diastolic pressure (LVEDP), and maximal rates of pressure rise (+dp/dtmax) and decline (−dp/dtmax) were recorded for 30 min and then analyzed.
# Rats receiving sham surgery were used as control.
# [8] = male pigs, 2 mg/kg, N number 5, day 30
# [9] = male pigs, 2 mg/kg, N number 5, + = slight (almost invisible)
# [10] = male pigs, 2 mg/kg, N number 5, ++ = mild (visible but very small)
sequence,measurement,setting,value
"WAAYRTHSVDYGRKKRRQRRR [NIMoEsh-Tat, WAAYRTHSVD-YGRKKRRQRRR]","H2O2-induced cell death, cell apoptosis assay (FIG. 1b)","[1]; Annexin V-FITC, flow cytometry",effectively reduced H2O2-induced cell death
same,CK activity in the culture medium (FIG. 1c),[1]; vs H2O2 group,"did not fully rescue H2O2-induced increase of CK activity, there was a trend of decreased CK activity"
same,"H2O2-induced cell death, MTT assay (FIG. 1a)",[1]; vs H2O2 group,effectively reduced H2O2-induced cell death
same,LDH activity in the culture medium (FIG. 1e),[1]; vs H2O2 group,effectively reduced H2O2-induced cell death
same,MDA activity in cultured cells (FIG. 1d),[1]; vs H2O2 group,effectively reduced H2O2-induced cell death
same,SOD activity in cultured cells (FIG. 1f),[1]; vs H2O2 group,effectively reduced H2O2-induced cell death
same,percentage of heart tissue infarct after AMI (FIG. 2a-b),[2],significantly reduced
same,"stroke volume (SV, FIG. 3c)",[3]; P<0.001,rescued AMI-induced function deficits
same,"ejection fraction (EF, FIG. 3d)",[3]; P<0.05,rescued AMI-induced function deficits
same,volume of AMI-induced heart infarct (FIGS. 3e and 3f),[4],reduced the volume of AMI-induced heart infarct
same,"Atrial fibrillation, Total (number of pigs)",[5]; [8],5
same,"Bleeding, Total (number of pigs)",[5]; [8],4
same,"Granuloma, Total (number of pigs)",[5]; [8],1
same,"Inflammation, Total (number of pigs)",[5]; [8],4
same,"Necrosis, Total (number of pigs)",[5]; [8],4
same,"Pericarditis, Total (number of pigs)",[5]; [8],0
same,"Atrial fibrillation, + (number of pigs)",[5]; [9],2
same,"Bleeding, + (number of pigs)",[5]; [9],4
same,"Granuloma, + (number of pigs)",[5]; [9],1
same,"Inflammation, + (number of pigs)",[5]; [9],4
same,"Pericarditis, + (number of pigs)",[5]; [9],0
same,"Atrial fibrillation, ++ (number of pigs)",[5]; [10],2
same,"Inflammation, ++ (number of pigs)",[5]; [10],0
same,"Necrosis, ++ (number of pigs)",[5]; [10],0
same,"Atrial fibrillation, +++ (number of pigs)","[5]; male pigs, 2 mg/kg, N number 5, +++ = moderate (visible and quantifiable)",1
same,"Necrosis, grade not given (number of pigs)","[5]; male pigs, 2 mg/kg, N number 5, grade cell empty, line above ++",4
same,"Pericarditis, grade not given (number of pigs)","[5]; male pigs, 2 mg/kg, N number 5, grade cell empty, line below +",0
same,"AMI-induced pathology observed under microscope, summary","[5]; pigs, 2 mg/kg i.v. twice, day 30, vs saline controls",much less AMI-induced pathology
same,"fibrillation in pig heart, H & E image (FIG. 3g)","[5]; pigs, 2 mg/kg i.v. twice, day 30, vs saline-treated pig heart",less fibrillation
same,body weight recovery after AMI (FIG. 4),[6],same level of body weight recovery
same,"+dp/dtmax, maximal rate of pressure rise (FIG. 2g)",[7]; vs saline,rescued heart function after AMI
same,left ventricular systolic pressure (FIG. 2e),[7]; vs saline,rescued heart function after AMI
same,"−dp/dtmax, maximal rate of pressure decline (FIG. 2h)",[7]; vs saline,rescued heart function after AMI
same,heart rate (FIG. 2c),[7]; vs sham,neither saline or NIMoEsh-Tat peptide changed
same,systolic blood pressure (FIG. 2d),[7]; vs sham,neither saline or NIMoEsh-Tat peptide changed
